Measured values reported in patent US20240247080A1, “GLP1/GIP/NPY2 RECEPTOR TRIPLE AGONISTS” (Boehringer Ingelheim International GmbH, priority 2022, published 2024).
Like-named read-outs stand apart in the source and are kept apart here. Starred links: 1 amine or outer side, 2 acyl side, 3 side chain; linkers in the order of their positions; H or OH if unused. Non-standard residues stand in square brackets, D forms with d. Groups on a side chain read outwards from the residue. *: point of attachment. C20 diacid = O=C(O)CCCCCCCCCCCCCCCCCCC(=O)*; C18 diacid = O=C(O)CCCCCCCCCCCCCCCCC(=O)*; γGlu = O=C(O)[C@H](CCC(=O)[*:2])N[*:1]; εLys = N[C@@H](CCCCN[*:1])C(=O)[*:2]; Aib = CC(C)(N)C(=O)O

What was measured:
Type in all cases: cell-based
Conditions in all cases: CreLuc reporter gene assay
hGLP1R = target: T1, hGLP1R (Homo sapiens, UniProt P43220); assay: hGLP1R CreLuc reporter gene assay in 0.5% and 100% plasma
T1 construct: expressed in transfected cells; host or cells: HEK-293 cells carrying a CRE-luciferase reporter gene
T1 sequence (P43220 24-463): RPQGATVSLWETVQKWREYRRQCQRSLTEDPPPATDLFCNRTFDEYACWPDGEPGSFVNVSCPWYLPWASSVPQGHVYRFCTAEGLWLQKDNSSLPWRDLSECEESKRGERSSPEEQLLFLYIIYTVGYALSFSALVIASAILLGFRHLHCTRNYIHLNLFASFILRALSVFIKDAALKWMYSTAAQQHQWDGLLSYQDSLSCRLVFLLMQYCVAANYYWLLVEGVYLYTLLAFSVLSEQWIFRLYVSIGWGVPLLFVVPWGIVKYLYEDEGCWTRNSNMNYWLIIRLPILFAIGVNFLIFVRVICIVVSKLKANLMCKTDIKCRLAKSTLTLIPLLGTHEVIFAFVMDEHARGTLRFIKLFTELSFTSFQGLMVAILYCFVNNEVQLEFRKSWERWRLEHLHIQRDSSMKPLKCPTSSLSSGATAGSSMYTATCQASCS
Method in brief: (§1)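 HEK-293 cells co-expressing GLP-1 or NPY2 receptor and CHO cells expressing GIP receptor, each carrying a CRE-driven luciferase reporter, were stimulated with peptides for 4 hours at 37 °C. Luminescence was read after Bright-Glo addition. EC50 came from 8-point, four-decade curves fitted by variable-slope non-linear regression.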

hGIPR = target: T2, hGIPR (Homo sapiens, UniProt P48546); assay: hGIPR CreLuc reporter gene assay in 0.5% and 100% plasma
T2 construct: expressed in transfected cells; host or cells: CHO cells carrying a CRE-luciferase reporter gene
T2 sequence (P48546 22-466): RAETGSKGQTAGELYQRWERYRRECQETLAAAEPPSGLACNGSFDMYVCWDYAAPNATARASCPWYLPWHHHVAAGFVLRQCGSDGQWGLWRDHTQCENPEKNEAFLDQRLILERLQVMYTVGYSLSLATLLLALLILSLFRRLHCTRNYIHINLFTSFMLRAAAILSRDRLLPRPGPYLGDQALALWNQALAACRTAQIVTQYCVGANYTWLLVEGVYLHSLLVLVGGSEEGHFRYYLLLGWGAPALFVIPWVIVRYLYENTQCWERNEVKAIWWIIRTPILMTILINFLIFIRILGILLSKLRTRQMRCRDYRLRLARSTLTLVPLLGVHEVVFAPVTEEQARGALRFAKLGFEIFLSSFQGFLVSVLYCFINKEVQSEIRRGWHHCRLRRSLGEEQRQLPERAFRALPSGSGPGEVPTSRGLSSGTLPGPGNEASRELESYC
Method in brief: as §1

hNPY2R = target: T3, hNPY2R (Homo sapiens, UniProt P49146); assay: hNPY2R CreLuc reporter gene assay in 0.5% and 100% plasma
T3 construct: expressed in transfected cells; host or cells: HEK-293 cells carrying a CRE-luciferase reporter gene
T3 sequence (P49146 1-381): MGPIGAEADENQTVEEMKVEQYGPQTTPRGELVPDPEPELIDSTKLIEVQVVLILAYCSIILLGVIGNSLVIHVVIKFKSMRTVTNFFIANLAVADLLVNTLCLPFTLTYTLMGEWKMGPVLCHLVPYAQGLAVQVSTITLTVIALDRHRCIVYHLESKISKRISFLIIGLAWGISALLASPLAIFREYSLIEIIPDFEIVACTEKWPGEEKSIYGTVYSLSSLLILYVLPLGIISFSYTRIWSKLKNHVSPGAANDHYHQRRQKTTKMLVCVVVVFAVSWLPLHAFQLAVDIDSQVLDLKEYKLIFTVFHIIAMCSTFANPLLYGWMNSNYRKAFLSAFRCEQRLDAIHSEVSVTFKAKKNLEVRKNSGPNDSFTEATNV
Method in brief: as §1

[1] = 0.5% human plasma, read-out: hGLP1R 0.5% hP
[2] = 0.5% human plasma, read-out: hGIPR 0.5% hP
[3] = 0.5% human plasma, read-out: hNPY2R 0.5% hP
[4] = 100% human plasma, read-out: hGLP1R 100% hP
[5] = 100% human plasma, read-out: hGIPR 100% hP

| Compound | EC50 (hGLP1R; [1]) [nM] | EC50 (hGIPR; [2]) [nM] | EC50 (hNPY2R; [3]) [nM] | EC50 (hGLP1R; [4]) [nM] | EC50 (hGIPR; [5]) [nM] | EC50 (hNPY2R; 100% human plasma, read-out: hNPY2R 100% hP) [nM] |
| --- | --- | --- | --- | --- | --- | --- |
| H-Y[Aib]EGTFTSDYSI[Aib]LEKQAQ[Aib]AFVEWLIK([εLys-γGlu-γGlu-γGlu-γGlu-γGlu-γGlu-C20 diacid])GGPSSGASLLHYYNWLTRQRY-NH2 [Compound 210, Y-Aib-E-G-T-F-T-S-D-Y-S-I-Aib-L-E-K-Q-A-Q-Aib-A-F-V-E-W-L-I-K(1,3)-GGPSSGASLLHYYNWLTRQRY-NH2.C20DA-gGlu-gGlu-gGlu-gGlu-gGlu-gGlu-eLys(1,2)] | 0.19 | 0.28 | 54.1 | – | – | – |
| CC[C@H](C)[C@H](NC(=O)[C@H](CC(C)C)NC(=O)[C@H](Cc1c[nH]c2ccccc12)NC(=O)[C@H](CCC(N)=O)NC(=O)[C@@H](NC(=O)[C@H](Cc1ccccc1)NC(=O)[C@H](C)NC(=O)C(C)(C)NC(=O)[C@H](CCC(N)=O)NC(=O)[C@H](C)NC(=O)[C@H](CCC(N)=O)NC(=O)[C@H](CCCCN)NC(=O)[C@H](CCC(=O)O)NC(=O)[C@H](CC(C)C)NC(=O)C(C)(C)NC(=O)[C@@H](NC(=O)[C@H](CO)NC(=O)[C@H](Cc1ccc(O)cc1)NC(=O)[C@H](CC(=O)O)NC(=O)[C@H](CO)NC(=O)[C@@H](NC(=O)[C@H](Cc1ccccc1)NC(=O)[C@@H](NC(=O)CNC(=O)[C@H](CCC(=O)O)NC(=O)C(C)(C)NC(=O)[C@@H](N)Cc1ccc(O)cc1)[C@@H](C)O)[C@@H](C)O)[C@@H](C)CC)C(C)C)C(=O)N[C@@H](CCCCNC(=O)[C@@H](N)CCCCNC(=O)[C@H](CCC(=O)O)NC(=O)[C@H](CCC(=O)O)NC(=O)[C@H](CCC(=O)O)NC(=O)[C@H](CCC(=O)O)NC(=O)[C@H](CCC(=O)O)NC(=O)[C@H](CCC(=O)O)NC(=O)CCCCCCCCCCCCCCCCC(=O)O)C(=O)NCC(=O)NCC(=O)N1CCC[C@H]1C(=O)N[C@@H](CO)C(=O)N[C@@H](CCC(=O)O)C(=O)NCC(=O)N[C@@H](C)C(=O)N[C@@H](CO)C(=O)N[C@@H](CC(C)C)C(=O)N[C@@H](CCCNC(=N)N)C(=O)N[C@@H](Cc1c[nH]cn1)C(=O)N[C@@H](Cc1ccc(O)cc1)C(=O)N[C@@H](Cc1ccc(O)cc1)C(=O)N[C@@H](CC(N)=O)C(=O)N[C@@H](Cc1c[nH]c2ccccc12)C(=O)N[C@@H](CC(C)C)C(=O)N[C@H](C(=O)N[C@@H](CCCNC(=N)N)C(=O)N[C@@H](CCC(N)=O)C(=O)N[C@@H](CCCNC(=N)N)C(=O)N[C@@H](Cc1ccc(O)cc1)C(N)=O)[C@@H](C)O [Compound 249, Y-Aib-E-G-T-F-T-S-D-Y-S-I-Aib-L-E-K-Q-A-Q-Aib-A-F-V-Q-W-L-I-K(1,3)-GGPSEGASLRHYYNWLTRQRY-NH2.C18DA-E-E-E-E-E-E-eLys(1,2)] | 0.13 | 0.19 | 17.8 | 1.78 | 1.25 | – |
| H-Y[Aib]EGTFTSDYSI[Aib]LEKQAQ[Aib]AFVEWLIK([εLys-γGlu-γGlu-γGlu-γGlu-γGlu-γGlu-C20 diacid])GGPSEYVSIRHYYNWLTRQRY-NH2 [Compound 42, Y-Aib-E-G-T-F-T-S-D-Y-S-I-Aib-L-E-K-Q-A-Q-Aib-A-F-V-E-W-L-I-K(1,3)-GGPSEYVSIRHYYNWLTRQRY-NH2.C20DA-gGlu-gGlu-gGlu-gGlu-gGlu-gGlu-eLys(1,2)] | 0.36 | 0.15 | – | – | – | 19.1 |
| H-Y[Aib]EGTFTSDYSI[Aib]LEKQAQ[Aib]EFVQWLIK([εLys-γGlu-γGlu-γGlu-γGlu-γGlu-C18 diacid])GGPSEGASLRHYYNWLTRQRY-NH2 [Compound 154, Y-Aib-E-G-T-F-T-S-D-Y-S-I-Aib-L-E-K-Q-A-Q-Aib-E-F-V-Q-W-L-I-K(1,3)-GGPSEGASLRHYYNWLTRQRY-NH2.C18DA-gGlu-gGlu-gGlu-gGlu-gGlu-eLys(1,2)] | 0.26 | 0.4 | 10.7 | – | 1.07 | – |
| H-Y[Aib]EGTFTSDYSI[Aib]LEKQAQ[Aib]AFVEWLIK([Glu-Glu-Glu-Glu-C18 diacid])GGPSEGASLRHYYNWLTRQRY-NH2 [Compound 291, Y-Aib-E-G-T-F-T-S-D-Y-S-I-Aib-L-E-K-Q-A-Q-Aib-A-F-V-E-W-L-I-K(1,3)-GGPSEGASLRHYYNWLTRQRY-NH2.C18DA-E-E-E-E(1,2)] | 0.1 | 0.18 | 14.3 | – | 0.7 | – |
| H-Y[Aib]EGTFTSDYSI[Aib]LEKQAQ[Aib]AFVEWLIK([εLys-γGlu-γGlu-γGlu-γGlu-γGlu-γGlu-C20 diacid])GGPSSGAS[Aib]RHYYNWLTRQR[dY]-NH2 [Compound 74, Y-Aib-E-G-T-F-T-S-D-Y-S-I-Aib-L-E-K-Q-A-Q-Aib-A-F-V-E-W-L-I-K(1,3)-G-G-P-S-S-G-A-S-Aib-R-H-Y-Y-N-W-L-T-R-Q-R-DTyr-NH2.C20DA-gGlu-gGlu-gGlu-gGlu-gGlu-gGlu-eLys(1,2)] | 0.08 | 0.1 | 53.4 | 1.13 | 0.62 | – |
